# Reference: US20060269601A1, “Oral modified release formulations containing 8-prenylnaringenin for continuous estrogen support” (priority 2005, published 2006)
# What was measured:
# [1] = Clinical Phase Ia study: drug serum levels after single oral dose of 8-prenylnaringenin; format: in vivo, human (postmenopausal women)
# Text: The pharmacokinetic profile of 8-prenylnaringenin is characterized by a complete oral absorption, a low degree of metabolization (less than 60% of dose) and a high pre-systemic elimination (first-liver-pass excretion; about 55% of dose). This high and unexpected pre-systemic elimination leads to an accumulation of substantial amounts in the bile fluid from which they are secreted into the duodenum when gastric signaling occurs with food intake. The 8-prenylnaringenin is then absorbed again and enters systemic circulation. Data were taken from the clinical Phase Ia study and represent two volunteers in the lowest dose group (50 mg 8-prenylnaringenin).
# Taking the total area under the curve as a measure of 8-prenylnaringenin systemic availability, the percentage of the area under the second peak (generated by reabsorption of the pre-systemically eliminated and then biliary secreted amounts) can be used to estimate those portions of the doses that undergo pre-systemic elimination after oral dosing. The average figure was 54±20% for the six women in the study.
# Re-increases in drug serum levels show reabsorption of dose parts collected in the bile fluid and subsequently secreted triggered by intake of the midday meal.
# 8-prenylnaringenin is analyzed by a specifically developed radio-immunoassay. A 4′-O hapten ({4-[5,7-Dihydroxy-8-(3-methyl-but-2-enyl)-4-oxo-chroman-2-yl]-phenoxy}-acetic acid) was synthesized starting from racemic naringenin and coupled to cationized bovine serum albumin (cBSA). This antigen was mixed with Freund's adjuvants and injected into rabbits. The antiserum resulting after several boosters was isolated as an IgG fraction and used in a final dilution of 1:100.000. A tritiated tracer was synthesized by preparation of the 3′,5′-dibromo derivative of 8-prenylnaringenin, again starting from racemic naringenin. Both bromine atoms were exchanged to ^3H in a final, palladium-catalyzed step leading to the tritiated tracer of a specific radioactivity of 2.22 GBq/mg.
# Biological matrices, i.e. blood plasma, blood serum, or urine, are either directly extracted with tert-butyl methyl ether (tert-BME) or after enzymatic de-conjugation by means of glucuronidase/arylsulfatase (Helix pomatia). Organic layers are separated, evaporated and the residues taken up in assay buffer. Extract residues or dilutions of standard 8-prenylnaringenin solutions are then mixed with antiserum and tracer and kept at 4° C. overnight. Dextran-coated charcoal is added to separate bound and free 8-prenylnaringenin and bound radioactivity is quantified with a liquid scintillation counter after addition of a scintillation cocktail.
# [2] = pH-dependent solubility of 8-prenylnaringenin; format: physicochemical; conditions: dependence on pH
# Text: The solid oral modified release formulations of this invention show a pH-independent drug release in vitro. This is important as the pH varies considerably in the gastro-intestinal tract and continuous release should be achieved independent of the pH. However, the solubility of 8-prenylnaringenin is pH-dependent. […] The low acid solubility property of 8-prenylnaringenin results in vitro in slow drug dissolution at pH 1, whereas the dissolution is fast at higher pH-values such as pH 6.8. The resulting dissolution profiles are different at different pH-values. This problem is solved by the solid oral modified release formulation of this invention.
# [3] = In vitro release/dissolution from mini-matrix tablets, basket apparatus USP XXV; format: physicochemical
# Method: Measurement of the active ingredient release from mini-matrix tablets is carried out according to a one-compartment method (basket apparatus), as described in U.S. Pharmacopeia USP XXV. The release of 8-prenylnaringenin was examined in phosphate buffer solution, pH 6.8 (composition, see USP XXV) or in 0.1 N HCl. Ten percent (w/w) hydroxypropyl-β-cyclodextrine were added in order to achieve sink conditions and primarily control the drug release by the dosage form.
# uterus = conditions: compared with estradiol at equivalent bone protective doses; cited from earlier work
smiles,measurement,setting,value
"CC(C)=CCc1c(O)cc(O)c2c1OC(c1ccc(O)cc1)CC2=O (centres unmarked) [8-prenylnaringenin, 5,7-Dihydroxy-2-(4-hydroxyphenyl)-8-(3-methylbut-2-enyl)-chroman-4-on]",percentage of the area under the second peak of total area under the curve (portion of dose undergoing pre-systemic elimination),"[1]; average for the six women in the study, after oral dosing",54±20%
same,degree of metabolization,"[1]; oral dosing, human",less than 60 % of dose
same,oral absorption,"[1]; oral dosing, human",complete
same,pre-systemic elimination (first-liver-pass excretion),"[1]; oral dosing, human",about 55 % of dose
same,solubility,[2],pH-dependent
same,drug dissolution in vitro,[3]; higher pH-values such as pH 6.8,fast
same,drug dissolution in vitro,[3]; pH 1,slow
same,activity on the uterus,uterus,much lower activity on the uterus than estradiol
